“And” between values parts separate entries of the source, which are not always exact repeats. Equal values may be shown once.
Target: T1, PPAR delta (Homo sapiens, UniProt Q03181)
T1 sequence (Q03181 171-441 limits assumed): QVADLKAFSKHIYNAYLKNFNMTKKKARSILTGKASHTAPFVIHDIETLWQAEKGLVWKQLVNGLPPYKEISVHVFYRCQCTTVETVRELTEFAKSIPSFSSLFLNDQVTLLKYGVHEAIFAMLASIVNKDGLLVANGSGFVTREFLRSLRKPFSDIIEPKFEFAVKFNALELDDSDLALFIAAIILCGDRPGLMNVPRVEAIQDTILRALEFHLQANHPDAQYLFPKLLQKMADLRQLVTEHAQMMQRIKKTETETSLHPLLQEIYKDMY
Assay: Transfection assay for PPAR receptors (PPAR-Gal4 / Gal4-Luciferase reporter in HEK293 cells)
Type: cell-based
Settings: HEK293 cells co-transfected with PPAR-Gal4 (δ) receptor and Gal4-Luciferase reporter, 24 hours; multiple EC50's = multiple measurements; Table 2
Description: Transfection Assay Method for PPAR Receptors
HEK293 cells were grown in DMEM/F-12 Media supplemented with 10% FBS and glutamine (GIBCOBRL). The cells were co-transfected with DNA for PPAR-Gal4 (PPARα, γ or δ) receptor and Gal4-Luciferase Reporter using the DMRIE-C Reagent. On the following day, the medium was replaced with 5% Charcoal treated FBS growth medium. After six hours, cells were trypsinized and seeded at a density of 50,000 cell/well into 96 well plates and incubated overnight at 37° C. in a 5% CO2 incubator. Cells were then treated with test compounds or vehicle and incubated for 24 hours at 37° C. in a 5% CO2 incubator. Luciferase activity was assayed using the Steady-Glo Luciferase Assay Kit from Promega. […] Steady-Glo Luciferase Assay Kit was purchased from Promega Part# E254B.

SMILES | EC50
Cc1cc(SCC(C)COc2ccc(C(F)(F)F)cc2)ccc1OCC(=O)O (stereo not shown) [Compound 1, {2-Methyl-4-[2-methyl-3-(4-trifluoromethyl-phenoxy)-propylsulfanyl]-phenoxy}-acetic acid] | 9.2 nM and 5.6 nM
CCC(COc1ccc(C(F)(F)F)cc1)CSc1ccc(OCC(=O)O)c(C)c1 (stereo not shown) [Compound 3, {2-Methyl-4-[2-(4-trifluoromethyl-phenoxymethyl)-butylsulfanyl]-phenoxy}-acetic acid] | 0.08 nM and 0.04 nM
CCC(COc1ccc(C(F)(F)F)cc1)CSc1ccc(OCC(=O)O)cc1 (stereo not shown) [Compound 4, {4-[2-(4-Trifluoromethyl-phenoxymethyl)-butylsulfanyl]-phenoxy}-acetic acid] | 29.6 nM
CCCCCC(COc1ccc(C(F)(F)F)cc1)CSc1ccc(OCC(=O)O)c(C)c1 (stereo not shown) [Compound 6, {2-Methyl-4-[2-(4-trifluoromethyl-phenoxymethyl)-heptylsulfanyl]-phenoxy}-acetic acid] | 3.3 nM (2×) and 3.7 nM
Cc1cc(SCC(C)Oc2ccc(C(F)(F)F)cc2)ccc1OCC(=O)O (stereo not shown) [Compound 7, {2-Methyl-4-[2-(4-trifluoromethyl-phenoxy)-propylsulfanyl]-phenoxy}-acetic acid] | 211 nM
Cc1ccc(OCCCSc2ccc(OCC(=O)O)c(C)c2)cc1 [Compound 8] | 215 nM
CCC(COc1ccc(C(F)(F)F)cc1)CSc1ccc(CC(=O)O)cc1Cl (stereo not shown) [Compound 9, {3-Chloro-4-[2-(4-trifluoromethyl-phenoxymethyl)-butylsulfanyl]-phenyl}-acetic acid] | 16.6 nM and 18.5 nM
Cc1cc(SCC(CC#N)COc2ccc(C(F)(F)F)cc2)ccc1OCC(=O)O (stereo not shown) [Compound 10, {4-[3-Cyano-2-(4-trifluoromethyl-phenoxymethyl)-propylsulfanyl]-2-methyl-phenoxy}-acetic acid] | 29 nM and 56 nM
Cc1cc(SCC(CCC#N)COc2ccc(C(F)(F)F)cc2)ccc1OCC(=O)O (stereo not shown) [Compound 11, {4-[4-Cyano-2-(4-trifluoromethyl-phenoxymethyl)-butylsulfanyl]-2-methyl-phenoxy}-acetic acid] | 5.7 nM
Cc1cc(SCC(C/C=C/C#N)COc2ccc(C(F)(F)F)cc2)ccc1OCC(=O)O (stereo not shown) [Compound 12, {4-[5-Cyano-2-(4-trifluoromethyl-phenoxymethyl)-pent-4-enylsulfanyl]-2-methyl-phenoxy}-acetic acid] | 19.9 nM
Cc1cc(SCC(O)COc2ccc(C(F)(F)F)cc2)ccc1OCC(=O)O (stereo not shown) [Compound 13] | 79 nM
COC(COc1ccc(C(F)(F)F)cc1)CSc1ccc(OCC(=O)O)c(C)c1 (stereo not shown) [Compound 14, {4-[2-Methoxy-3-(4-trifluoromethyl-phenoxy)-propylsulfanyl]-2-methyl-phenoxy}-acetic acid] | 16.2 nM and 21.5 nM
CCO[C@H](COc1ccc(C(F)(F)F)cc1)CSc1ccc(OCC(=O)O)c(C)c1 [Compound 15, (R)-{4-[2-Ethoxy-3-(4-trifluoromethyl-phenoxy)-propylsulfanyl]-2-methyl-phenoxy}-acetic acid] | 0.76 nM and 0.56 nM and 0.88 nM and 3.4 nM and 5 nM and 1.1 nM
CCO[C@@H](COc1ccc(C(F)(F)F)cc1)CSc1ccc(OCC(=O)O)c(C)c1 [Compound 16, (S)-{4-[2-Ethoxy-3-(4-trifluoromethyl-phenoxy)-propylsulfanyl]-2-methyl-phenoxy}-acetic acid] | 22.4 nM and 27.5 nM
CCOC(COc1ccc(C(F)(F)F)cc1)CSc1ccc(OCC(=O)O)c(C)c1 (stereo not shown) [Compound 17, {4-[2-Ethoxy-3-(4-trifluoromethyl-phenoxy)-propylsulfanyl]-2-methyl-phenoxy}-acetic acid] | 4.2 nM and 3.2 nM and 1.5 nM and 4.5 nM and 0.69 nM and 2.7 nM
CCCOC(COc1ccc(C(F)(F)F)cc1)CSc1ccc(OCC(=O)O)c(C)c1 (stereo not shown) [Compound 18, {2-Methyl-4-[2-propoxy-3-(4-trifluoromethyl-phenoxy)-propylsulfanyl]-phenoxy}-acetic acid] | 4.3 nM
CCCCOC(COc1ccc(C(F)(F)F)cc1)CSc1ccc(OCC(=O)O)c(C)c1 (stereo not shown) [Compound 19, {4-[2-Butoxy-3-(4-trifluoromethyl-phenoxy)-propylsulfanyl]-2-methyl-phenoxy}-acetic acid] | 7.5 nM and 6.5 nM
C=CCOC(COc1ccc(C(F)(F)F)cc1)CSc1ccc(OCC(=O)O)c(C)c1 (stereo not shown) [Compound 21, {4-[2-Allyloxy-3-(4-trifluoromethyl-phenoxy)-propylsulfanyl]-2-methyl-phenoxy}-acetic acid] | 3.7 nM and 4.2 nM
COCO[C@@H](COc1ccc(C(F)(F)F)cc1)CSc1ccc(OCC(=O)O)c(C)c1 [Compound 23, (S)-{4-[2-Methoxymethoxy-3-(4-trifluoromethyl-phenoxy)-propylsulfanyl]-2-methyl-phenoxy}-acetic acid] | 70 nM
COCOC(COc1ccc(C(F)(F)F)cc1)CSc1ccc(OCC(=O)O)c(C)c1 (stereo not shown) [Compound 24, {4-[2-Methoxymethoxy-3-(4-trifluoromethyl-phenoxy)-propylsulfanyl]-2-methyl-phenoxy}-acetic acid] | 6.3 nM and 6.6 nM (2×) and 5.1 nM and 6.4 nM and 3.7 nM
CSCOC(COc1ccc(C(F)(F)F)cc1)CSc1ccc(OCC(=O)O)c(C)c1 (stereo not shown) [Compound 25, {2-Methyl-4-[2-methylsulfanylmethoxy-3-(4-trifluoromethyl-phenoxy)-propylsulfanyl]-phenoxy}-acetic acid] | 25.2 nM and 8.9 nM and 8.8 nM
Cc1cc(SCC(COc2ccc(C(F)(F)F)cc2)OCC(=O)O)ccc1OCC(=O)O (stereo not shown) [Compound 26, {4-[2-Carboxymethoxy-3-(4-trifluoromethyl-phenoxy)-propylsulfanyl]-2-methyl-phenoxy}-acetic acid] | 126 nM

The next lines start with the values.

EC50 | SMILES
11.9 nM and 18.5 nM | Cc1cc(SC[C@@H](COc2ccc(C(F)(F)F)cc2)OCc2ccc(Cl)s2)ccc1OCC(=O)O [Compound 27, {4-[2-(5-Chloro-thiophen-2-ylmethoxy)-3-(4-trifluoromethyl-phenoxy)-propylsulfanyl]-2-methyl-phenoxy}-acetic acid]
62.1 nM | COc1ccc(OC(COc2ccc(C(F)(F)F)cc2)CSc2ccc(OCC(=O)O)c(C)c2)cc1 (stereo not shown) [Compound 29, {4-[2-(4-Methoxy-phenoxy)-3-(4-trifluoromethyl-phenoxy)-propylsulfanyl]-2-methyl-phenoxy}-acetic acid]
23.9 nM | CCCC(=O)c1ccc(OC(COc2ccc(C(F)(F)F)cc2)CSc2ccc(OCC(=O)O)c(C)c2)cc1 (stereo not shown) [Compound 30, {4-[2-(4-Butyryl-phenoxy)-3-(4-trifluoromethyl-phenoxy)-propylsulfanyl]-2-methyl-phenoxy}-acetic acid]
> 1000 nM | Cc1ccc(OCC(O)CSc2ccc(OCC(=O)O)c(C)c2)cc1 (stereo not shown) [Compound 31]
11.2 nM | CCOC(COc1ccc(C(F)(F)F)cc1)CSc1ccc(CC(=O)O)cc1Cl (stereo not shown) [Compound 32, {3-Chloro-4-[2-ethoxy-3-(4-trifluoromethyl-phenoxy)-propylsulfanyl]-phenyl}-acetic acid]
4.7 nM and 4.6 nM | CCOCC(COc1ccc(C(F)(F)F)cc1)CSc1ccc(OCC(=O)O)c(C)c1 (stereo not shown) [Compound 33, {4-[2-Ethoxymethyl-3-(4-trifluoromethyl-phenoxy)-propylsulfanyl]-2-methyl-phenoxy}-acetic acid]
2.3 nM and 4.1 nM | COCCC(COc1ccc(C(F)(F)F)cc1)CSc1ccc(OCC(=O)O)c(C)c1 (stereo not shown) [Compound 35, {4-[4-Methoxy-2-(4-trifluoromethyl-phenoxymethyl)-butylsulfanyl]-2-methyl-phenoxy}-acetic acid]
52.9 nM | CCOC(CC(COc1ccc(C(F)(F)F)cc1)CSc1ccc(OCC(=O)O)c(C)c1)OCC (stereo not shown) [Compound 36, {4-[4,4-Diethoxy-2-(4-trifluoromethyl-phenoxymethyl)-butylsulfanyl]-2-methyl-phenoxy}-acetic acid]
1.9 nM and 2.9 nM | CCOCCC(COc1ccc(C(F)(F)F)cc1)CSc1ccc(OCC(=O)O)c(C)c1 (stereo not shown) [Compound 37, {4-[4-Ethoxy-2-(4-trifluoromethyl-phenoxymethyl)-butylsulfanyl]-2-methyl-phenoxy}-acetic acid]
12.5 nM and 17.9 nM | CSCOC(CCc1ccc(C(F)(F)F)cc1)CSc1ccc(OCC(=O)O)c(C)c1 (stereo not shown) [Compound 39, {2-Methyl-4-[2-methylsulfanylmethoxy-4-(4-trifluoromethyl-phenyl)-butylsulfanyl]-phenoxy}-acetic Acid]
39.3 nM and 43.7 nM | Cc1cc(SCC/C=C/c2ccc(C(F)(F)F)cc2)ccc1OCC(=O)O [Compound 40, {2-Methyl-4-[4-(4-trifluoromethyl-phenyl)-but-3-enylsulfanyl]-phenoxy}-acetic acid]
144 nM | Cc1cc(SCC(O)/C=C/c2ccc(C(F)(F)F)cc2)ccc1OCC(=O)O (stereo not shown) [Compound 41]
8 nM and 7.9 nM | CCOC(/C=C/c1ccc(C(F)(F)F)cc1)CSc1ccc(OCC(=O)O)c(C)c1 (stereo not shown) [Compound 42, {4-[2-Ethoxy-4-(4-trifluoromethyl-phenyl)-but-3-enylsulfanyl]-2-methyl-phenoxy}-acetic Acid]
43.2 nM | Cc1cc(SC[C@H](O)COc2ccc(C(F)(F)F)cc2)ccc1OCC(=O)O [Compound 43, Acetic acid, {4-(2R)-2-hydroxy-3-(4-trifluoromethyl-phenoxy)-propylsulfanyl}-2-methyl-phenoxyy]
24.3 nM | CCOC(COc1ccc(C(F)(F)F)cc1)COc1ccc(OCC(=O)O)c(C)c1 (stereo not shown) [Compound 44, {-4-[2-Ethoxy-3-(4-trifluoromethyl-phenoxy)-propoxy]-2-methyl-phenoxy}-acetic acid]
